Experimental data taken from patent US20250082611A1, “DOSING REGIMEN FOR AN NLRP3 INHIBITOR IN THE TREATMENT OF OSTEOARTHRITIS” (Novartis AG, priority 2021, published 2025).
Entries after “also recorded” stand apart in the source; their conditions may differ. Where two headings read alike, the source gives them in different places.

How the values were obtained:
[1] = in vivo
Method: The safety of the treatment period is supported by 13-week GLP toxicology studies in rat and cynomolgus monkey. […] Safety margins for COMPOUND IA dosed at 25 mg b.i.d. based on 13-week GLP toxicology studies: […]

[2] = First-in-human study: plasma pharmacokinetics in healthy subjects; assay type: in vivo; conditions: for median lag time: fed; for half-life: read-out: mean t1/2 (converted); for Tmax: read-out: median tmax; for CL renal: urine, read-out: Renal clearance (converted); for dose proportionality of exposure: single doses
From the text: The study design comprised of 4 parts: single ascending dose (SAD; Part A), relative bioavailability of tablet formulations (Part B), multiple ascending dose (MAD; Part C), and relative bioavailability and food effect (Part D) (FIG. 2; RF=Reference Formulation (crystalline suspension); T2=Test Formulation 2 (crystalline tablet); T3=Test Formulation 3 (spray-dried dispersion suspension); T4=Test Formulation 4 (encapsulated crystalline tablet)). In each group of Parts A and C, 8 subjects were randomized in a 3:1 ratio to receive Compound IA (6 subjects) or matching placebo (2 subjects).
For Part A, eight cohorts of eight eligible subjects were enrolled. Each subject received a single oral dose of Compound IA (3, 10, 30, 100, 300 mg of crystalline suspension and 100, 300, 600 mg of spray-dried dispersion (SDD) under fasted conditions. As this was a FIH study, two sentinel subjects were dosed first, at least 24 hours before the rest of the cohort was dosed, to assure maximum safety. Part B was skipped because the data from Part A provided for an adequate comparison of crystalline and SDD formulations.
For part C, eligible subjects were enrolled in six different cohorts. […] Subjects were dosed in Part C following review available safety, tolerability and PK data from preceding groups in Part A.
[…] […] Based on these doses, subjects were randomly assigned to 1 of 6 treatment sequences (1 subject per sequence) prepared using Williams design.
In single-dose part, blood samples were collected for determining the concentrations of Compound IA at the following time points relative to dosing on Day 1: at pre-dose and 0.25, 0.5, 0.75, 1, 1.5, 2, 3, 4, 6, 8, 12, 24, 36, and 48 hours post-dose, and at the follow-up visit. In multiple-dose part, relative to dosing on Days 1 and 14, samples were collected at pre-dose and 0.25, 0.5, 0.75, 1, 1.5, 2, 3, 4, 6, 8, and 12 hours post-dose; on Days 2, 4, 7, 9, and 11: at pre-dose; after the last dose on Day 14: at 24 and 36 hours (Day 15), and 48 hours (Day 16) post-dose; and at the follow-up visit.
All data were summarized using descriptive statistics and were listed and summarized in tabular and/or graphical form. Descriptive statistics for all relevant PK parameters included: n, arithmetic mean, standard deviation (SD), coefficient of variation (CV %), minimum, median, maximum, geometric mean, and geometric CV %. For tmax only median, minimum, and maximum are presented. PK parameters were calculated using noncompartmental methods using software Phoenix Version 8.1. Concentrations below the lower limit of quantification (LLOQ) were treated as zero in summary statistics for concentration data only. The linear trapezoidal rule was used for AUC calculation. Regression analysis of the terminal plasma elimination phase for the determination of t1/2 included at least 3 data points after Cmax. Parameters with an adjusted r^2 below 0.80 were flagged but included in the descriptive statistics. The parameters AUC0-inf, % AUCextra, CL/F, and VZ/F with an % AUCextra above 20% were excluded from the descriptive statistics.
In Part A, dose proportionality was explored using a regression power model relating logarithmically (log)-transformed Cmax, AUC0-last, and AUC0-inf to the log-transformed dose level. Point estimates for the intercept and the slope and corresponding 90% confidence intervals (CIs) for the slope were calculated. For Part C, dose proportionality was not explored. In Part D, the relative bioavailability of the Test Formulation (crystalline tablet, SDD and crystalline tablet) versus the Reference Formulation (crystalline suspension), as well as the effect of food, was explored using an analysis of variance (ANOVA) model on the PK data.
For the following treatments, the least-squares geometric mean ratios were presented together with 90% CIs: 100 mg Compound IA tablet fasted over 100 mg Compound IA suspension fasted, and 100 mg Compound IA tablet fed over 100 mg Compound IA tablet fasted.

[3] = single dose 100 mg, crystalline suspension

SMILES: CC(C)(O)c1ncc([S@](N)(=O)=NC(=O)Nc2c3c(cc4c2CCC4)CCC3)s1 [Compound IA, (R)-N′-((1,2,3,5,6,7-hexahydro-s-indacen-4-yl)carbamoyl)-2-(2-hydroxypropan-2-yl) thiazole-5-sulfonimidamide]
- Exposure multiples RAT NOAEL based on AUC0-24 h [1]: 14
- Exposure multiples RAT NOAEL based on Cmax [1]: 34
- Exposure multiples RAT NOAEL based on AUC0-24 h ([1]; 25 mg): 7
- Exposure multiples RAT NOAEL based on Cmax ([1]; 25 mg): 17
- increase of AUC, fed (high-fat, high-calorie meal) vs fasted ([2]; 100 mg crystalline tablet): 1.49 fold
- increase of Cmax, fed (high-fat, high-calorie meal) vs fasted ([2]; 100 mg crystalline tablet): 2.05 fold
- Cmax lower for crystalline tablet than suspension ([2]; 100 mg, fasted): 78%
- multiple dose PK ([2]; after 2 weeks, multiple doses and formulations): linear
- absorption of crystalline material ([2]; doses≥100 mg): solubility-limited absorption
- median lag time ([2]; encapsulated crystalline tablets 25 mg bid): 0.75 h
- median lag time ([2]; encapsulated crystalline tablets 50 mg bid): 0.25 h
- AUCs of subjects with heterogenous CYP2C9 genotypes versus normal CYP2C9 activity ([2]; human, in vivo): higher
- oral clearance relative to human liver blood flow ([2]; human, in vivo, po): ≤ 2%
- renal elimination as share of oral dose ([2]; human, in vivo, po): less than 0.8%
- half-life ([2]; human, plasma, oral, 100 mg, suspension formulation): 17.7 h
- half-life ([2]; human, plasma, oral, across QD and BID dose levels): 9.83 to 16.2 h
- Vd/F ([2]; human, plasma, oral, steady state, across QD and BID dose levels, read-out: Vss/F): 12.6 to 23.3 L
- Tmax ([2]; human, plasma, po, single oral doses 30-600 mg, fasted): 1.5 to 3 h
- Tmax ([2]; human, plasma, po, single oral doses of suspensions, fasted, across dose levels): 0.76 to 3 h
- CL renal ([2]; human, oral, Day 1): ~0.0667 mL/min
- CL renal ([2]; human, oral, steady state (Day 14)): ~0.133 mL/min
- drug accumulation in reaching steady state ([2]; once daily dosing): about 1.2 fold
- increase of AUC0-last, fed compared to fasted [2, 3]: 1.49 fold
- increase of Cmax, fed compared to fasted [2, 3]: 2.05 fold
- dose proportionality of exposure ([2]; SDD suspension 100-600 mg, fasted): dose-proportionally; also recorded: dose-proportional increase
- dose proportionality of exposure ([2]; crystalline suspension 3-300 mg, fasted): less than dose-proportional
- median tmax ([2]; single oral doses of suspensions, fasted, across dose levels): 0.76 to 3.0 h
- CLss/F ([2]; steady state, across QD and BID dose levels): ~1.0 L/h
- drug accumulation in reaching steady state ([2]; twice daily dosing): 2 fold
